Data reported in patent US10035804B2, “Spirodiamine derivatives as aldosterone synthase inhibitors” (Hoffmann-La Roche Inc., priority 2014, dated 2018).

Tests used:
human CYP11B1 = human CYP11B1 (Homo sapiens (Human), UniProt P15538); experiment: G-402 cellular enzyme assay, human CYP11B1 (cortisol release); format: cell-based; conditions: G-402 cells expressing human CYP11B1; 1 μM Deoxycortisol; cortisol in supernatant after 16 h
Text: (§1) Herein we identified the use of the G-402 cell line as a host cell to ectopically express (transiently or stably) enzymes of the CYP11 family. Specifically we developed stable G-402 cells expressing ectopically human CYP11B1, human CYP11B2, human CYP11A1, cynmolgus CYP11B1 or cynomolgus CYP11B2 enzyme activity. Importantly the identified cell line G-402 expresses co-factors (adrenodoxin and adrenodoxin reductase) important for the activity of the CYP11 family and no relevant enzyme activity of the CYP11 family (in comparison to H295R cells) was detected in these cells. Therefore the G-402 cell line is uniquely suited as a host cell for the ectopic expression of enzymes from the CYP11 family.
(§2) G-402 cells can be obtained from ATCC (CRL-1440) and were originally derived from a renal leiomyoblastoma.
(§3) The expression plasmids contains the ORF for either human/cyno CYP11B1 or CYP11B2 under the control of a suitable promoter (CMV-promoter) and a suitable resistance marker (neomycin). Using standard techniques the expression plasmid is transfected into G-402 cells and these cells are then selected for expressing the given resistance markers. Individual cell-clones are then selected and assessed for displaying the desired enzymatic activity using 11-Deoxycorticosterone (Cyp11B2) or 11-Deoxycortisol (Cyp11B1) as a substrate.
(§4) G-402 cells expressing CYP11 constructs were established as described above and maintained in McCoy's 5a Medium Modified, ATCC Catalog No. 30-2007 containing 10% FCS and 400 μg/ml G418 (Geneticin) at 37° C. under an atmosphere of 5% CO2/95% air. Cellular enzyme assays were performed in DMEM/F12 medium containing 2.5% charcoal treated FCS and appropriate concentration of substrate (0.3-10 uM 11-Deoxycorticosterone, 11-Deoxycortisol or Corticosterone). For assaying enzymatic activity, cells were plated onto 96 well plates and incubated for 16 h. An aliquot of the supernatant is then transferred and analyzed for the concentration of the expected product (Aldosterone for CYP11B2; Cortisol for CYP11B1). The concentrations of these steroids can be determined using HTRF assays from CisBio analyzing either Aldosterone or Cortisol.
(§5) Inhibition of the release of produced steroids can be used as a measure of the respective enzyme inhibition by test compounds added during the cellular enzyme assay. The dose dependent inhibition of enzymatic activity by a compound is calculated by means of plotting added inhibitor concentrations (x-axes) vs. measured steroid/product level (y-axes). The inhibition is then calculated by fitting the following 4-parameter sigmoidal function (Morgan-Mercer-Flodin (MMF) model) to the raw data points using the least squares method:
(§6) [formula] wherein, A is the maximum y value, B is the EC50 factor determined using XLFit, C is the minimum y value and D is the slope value.
(§7) EC50 values for compounds claimed herein were tested with the G402-based assay system described. Cyp11B2 enzyme activity was tested in presence of 1 μM Deoxycorticosterone and variable amounts of inhibitors; Cyp11B1 enzyme activity was tested in presence of 1 μM Deoxycortisol and variable amounts of inhibitors.

human CYP11B2 = human CYP11B2 (Homo sapiens (Human), UniProt P19099); experiment: G-402 cellular enzyme assay, human CYP11B2 (aldosterone release); format: cell-based; conditions: G-402 cells expressing human CYP11B2; 1 μM Deoxycorticosterone; aldosterone in supernatant after 16 h
Text: as §1, §2, §3, §4, §5, §6, §7

Sequence of human CYP11B1 (P15538 25-503): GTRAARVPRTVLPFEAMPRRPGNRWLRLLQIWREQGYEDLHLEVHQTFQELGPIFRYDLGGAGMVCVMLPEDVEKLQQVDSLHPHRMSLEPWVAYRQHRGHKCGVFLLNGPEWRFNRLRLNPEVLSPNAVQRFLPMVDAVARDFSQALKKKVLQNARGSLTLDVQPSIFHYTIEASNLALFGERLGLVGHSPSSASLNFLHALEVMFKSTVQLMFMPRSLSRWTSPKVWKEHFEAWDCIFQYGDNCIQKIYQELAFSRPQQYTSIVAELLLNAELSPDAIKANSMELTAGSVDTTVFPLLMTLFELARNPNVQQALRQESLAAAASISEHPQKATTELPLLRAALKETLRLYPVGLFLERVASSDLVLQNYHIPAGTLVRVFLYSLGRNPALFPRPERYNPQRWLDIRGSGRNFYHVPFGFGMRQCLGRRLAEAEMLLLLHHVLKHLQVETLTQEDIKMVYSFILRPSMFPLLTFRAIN
Sequence of human CYP11B2 (P19099 25-503): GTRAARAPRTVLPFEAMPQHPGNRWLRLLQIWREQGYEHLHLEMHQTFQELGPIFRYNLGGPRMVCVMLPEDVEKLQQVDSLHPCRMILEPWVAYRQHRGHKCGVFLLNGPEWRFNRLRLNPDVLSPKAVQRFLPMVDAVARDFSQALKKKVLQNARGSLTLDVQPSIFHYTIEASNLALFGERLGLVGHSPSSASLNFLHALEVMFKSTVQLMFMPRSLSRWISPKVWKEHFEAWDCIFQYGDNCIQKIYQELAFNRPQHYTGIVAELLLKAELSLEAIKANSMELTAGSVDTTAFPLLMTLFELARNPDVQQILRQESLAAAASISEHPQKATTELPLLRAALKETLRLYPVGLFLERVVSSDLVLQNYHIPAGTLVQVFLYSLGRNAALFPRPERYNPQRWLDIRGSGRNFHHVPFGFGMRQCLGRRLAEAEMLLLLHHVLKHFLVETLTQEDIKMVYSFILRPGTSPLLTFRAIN

Row | SMILES | EC50 (human CYP11B1) [nM] | EC50 (human CYP11B2) [nM]
1 | Cn1cc(C(=O)N2CC3(C2)CN(c2cncc(N4C(=O)c5ccc(Cl)cc5C4(C)C)c2)C3)cn1 [Example 1, 5-Chloro-3,3-dimethyl-2-[5-[2-(1-methylpyrazole-4-carbonyl)-2,6-diazaspiro[3.3]-heptan-6-yl]-3-pyridyl]isoindolin-1-one] | 11.3 | 0.002
2 | CCn1cc(C(=O)N2CC3(C2)CN(c2cncc(N4C(=O)c5ccc(Cl)cc5C4(C)C)c2)C3)cn1 [Example 2, 5-Chloro-2-[5-[2-(1-ethylpyrazole-4-carbonyl)-2,6-diazaspiro[3.3]heptan-6-yl]-3-pyridyl]-3,3-dimethyl-isoindolin-1-one] | 11.1 | 0.003
3 | CC(C)n1cc(C(=O)N2CC3(C2)CN(c2cncc(N4C(=O)c5ccc(Cl)cc5C4(C)C)c2)C3)cn1 [Example 3, 5-Chloro-2-[5-[2-(1-isopropylpyrazole-4-carbonyl)-2,6-diazaspiro[3.3]heptan-6-yl]-3-pyridyl]-3,3-dimethyl-isoindolin-1-one] | 11.1 | 0.0083
4 | Cn1ccnc1C(=O)N1CC2(C1)CN(c1cncc(N3C(=O)c4ccc(Cl)cc4C3(C)C)c1)C2 [Example 4, 5-Chloro-3,3-dimethyl-2-[5-[2-(1-methylimidazole-2-carbonyl)-2,6-diazaspiro[3.3]heptan-6-yl]-3-pyridyl]isoindolin-1-one] | 1.1 | 0.0099
5 | Cn1nccc1C(=O)N1CC2(C1)CN(c1cncc(N3C(=O)c4ccc(Cl)cc4C3(C)C)c1)C2 [Example 5, 5-Chloro-3,3-dimethyl-2-[5-[2-(2-methylpyrazole-3-carbonyl)-2,6-diazaspiro[3.3]heptan-6-yl]-3-pyridyl]isoindolin-1-one] | 15.7 | 0.145
6 | Cn1cncc1C(=O)N1CC2(C1)CN(c1cncc(N3C(=O)c4ccc(Cl)cc4C3(C)C)c1)C2 [Example 6, 5-Chloro-3,3-dimethyl-2-[5-[2-(3-methylimidazole-4-carbonyl)-2,6-diazaspiro[3.3]heptan-6-yl]-3-pyridyl]isoindolin-1-one] | 7.94 | 0.0117
7 | Cc1ccncc1C(=O)N1CC2(C1)CN(c1cncc(N3C(=O)c4ccc(Cl)cc4C3(C)C)c1)C2 [Example 7, 5-Chloro-3,3-dimethyl-2-[5-[2-(4-methylpyridine-3-carbonyl)-2,6-diazaspiro[3.3]heptan-6-yl]-3-pyridyl]isoindolin-1-one] | 25.7 | 0.0138
8 | Cn1cc(C(=O)N2CC3(C2)CN(c2cncc(N4C(=O)c5ccc(C#N)cc5C4(C)C)c2)C3)cn1 [Example 8, 3,3-Dimethyl-2-[5-[2-(1-methylpyrazole-4-carbonyl)-2,6-diazaspiro[3.3]heptan-6-yl]-3-pyridyl]-1-oxo-isoindoline-5-carbonitrile] | > 30 | 0.112
9 | CCn1cc(C(=O)N2CC3(C2)CN(c2cncc(N4C(=O)c5ccc(C#N)cc5C4(C)C)c2)C3)cn1 [Example 9, 2-[5-[2-(1-Ethylpyrazole-4-carbonyl)-2,6-diazaspiro[3.3]heptan-6-yl]-3-pyridyl]-3,3-dimethyl-1-oxo-isoindoline-5-carbonitrile] | 24.4 | 0.009
10 | CC(C)n1cc(C(=O)N2CC3(C2)CN(c2cncc(N4C(=O)c5ccc(C#N)cc5C4(C)C)c2)C3)cn1 [Example 10, 2-[5-[2-(1-Isopropylpyrazole-4-carbonyl)-2,6-diazaspiro[3.3]heptan-6-yl]-3-pyridyl]-3,3-dimethyl-1-oxo-isoindoline-5-carbonitrile] | 25.6 | 0.0155
11 | Cn1ccnc1C(=O)N1CC2(C1)CN(c1cncc(N3C(=O)c4ccc(C#N)cc4C3(C)C)c1)C2 [Example 11, 3,3-Dimethyl-2-[5-[2-(1-methylimidazole-2-carbonyl)-2,6-diazaspiro[3.3]heptan-6-yl]-3-pyridyl]-1-oxo-isoindoline-5-carbonitrile] | 4.76 | 0.0252
12 | Cn1nccc1C(=O)N1CC2(C1)CN(c1cncc(N3C(=O)c4ccc(C#N)cc4C3(C)C)c1)C2 [Example 12, 3,3-Dimethyl-2-[5-[2-(2-methylpyrazole-3-carbonyl)-2,6-diazaspiro[3.3]heptan-6-yl]-3-pyridyl]-1-oxo-isoindoline-5-carbonitrile] | > 30 | 0.191
13 | Cn1cncc1C(=O)N1CC2(C1)CN(c1cncc(N3C(=O)c4ccc(C#N)cc4C3(C)C)c1)C2 [Example 13, 3,3-Dimethyl-2-[5-[2-(3-methylimidazole-4-carbonyl)-2,6-diazaspiro[3.3]heptan-6-yl]-3-pyridyl]-1-oxo-isoindoline-5-carbonitrile] | 26.4 | 0.0278
14 | Cc1ccncc1C(=O)N1CC2(C1)CN(c1cncc(N3C(=O)c4ccc(C#N)cc4C3(C)C)c1)C2 [Example 14, 3,3-Dimethyl-2-[5-[2-(4-methylpyridine-3-carbonyl)-2,6-diazaspiro[3.3]heptan-6-yl]-3-pyridyl]-1-oxo-isoindoline-5-carbonitrile] | 21 | 0.0407
15 | COc1ccc2c(n1)C(C)(C)N(c1cncc(N3CC4(CN(C(=O)c5cnn(C)c5)C4)C3)c1)C2=O [Example 15, 2-Methoxy-7,7-dimethyl-6-[5-[2-(1-methylpyrazole-4-carbonyl)-2,6-diazaspiro[3.3]heptan-6-yl]-3-pyridyl]pyrrolo[3,4-b]pyridin-5-one] | 18.9 | 0.0205
16 | COc1ccc2c(n1)C(C)(C)N(c1cncc(N3CC4(CN(C(=O)c5cnccc5C)C4)C3)c1)C2=O [Example 16, 2-Methoxy-7,7-dimethyl-6-[5-[2-(4-methylpyridine-3-carbonyl)-2,6-diazaspiro[3.3]heptan-6-yl]-3-pyridyl]pyrrolo[3,4-b]pyridin-5-one] | 29.3 | 0.0827
17 | COc1ccc2c(n1)C(C)(C)N(c1cncc(N3CC4(CN(C(=O)c5ccnn5C)C4)C3)c1)C2=O [Example 17, 2-Methoxy-7,7-dimethyl-6-[5-[2-(2-methylpyrazole-3-carbonyl)-2,6-diazaspiro[3.3]heptan-6-yl]-3-pyridyl]pyrrolo[3,4-b]pyridin-5-one] | 33.2 | 0.901
18 | CC1c2cc(Cl)ccc2C(=O)N1c1cncc(N2CC3(CN(C(=O)c4cnn(C)c4)C3)C2)c1 (centres unmarked) [Example 18, 5-Chloro-3-methyl-2-[5-[2-(1-methylpyrazole-4-carbonyl)-2,6-diazaspiro[3.3]heptan-6-yl]-3-pyridyl]isoindolin-1-one] | 16.7 | 0.0078
19 | Cn1cc(C(=O)N2CCC3(CC2)CN(c2cncc(N4C(=O)c5ccc(Cl)cc5C4(C)C)c2)C3)cn1 [Example 56, 5-Chloro-3,3-dimethyl-2-[5-[7-(1-methylpyrazole-4-carbonyl)-2,7-diazaspiro[3.5]nonan-2-yl]-3-pyridyl]isoindolin-1-one] | 18.8 | –
20 | CCn1cc(C(=O)N2CCC3(CC2)CN(c2cncc(N4C(=O)c5ccc(Cl)cc5C4(C)C)c2)C3)cn1 [Example 58, 5-Chloro-2-[5-[7-(1-ethylpyrazole-4-carbonyl)-2,7-diazaspiro[3.5]nonan-2-yl]-3-pyridyl]-3,3-dimethyl-isoindolin-1-one] | 9.64 | –
21 | Cn1cc(C(=O)N2CC3(CCN(c4cncc(N5C(=O)c6ccc(Cl)cc6C5(C)C)c4)CC3)C2)cn1 [Example 59, 5-Chloro-3,3-dimethyl-2-[5-[2-(1-methylpyrazole-4-carbonyl)-2,7-diazaspiro[3.5]nonan-7-yl]-3-pyridyl]isoindolin-1-one] | 0.819 | –
22 | CCn1cc(C(=O)N2CC3(CCN(c4cncc(N5C(=O)c6ccc(Cl)cc6C5(C)C)c4)CC3)C2)cn1 [Example 60, 5-Chloro-2-[5-[2-(1-ethylpyrazole-4-carbonyl)-2,7-diazaspiro[3.5]nonan-7-yl]-3-pyridyl]-3,3-dimethyl-isoindolin-1-one] | 0.892 | –
23 | Cc1ccncc1C(=O)N1CC2(CCN(c3cncc(N4C(=O)c5ccc(Cl)cc5C4(C)C)c3)CC2)C1 [Example 61, 5-Chloro-3,3-dimethyl-2-[5-[2-(4-methylpyridine-3-carbonyl)-2,7-diazaspiro[3.5]nonan-7-yl]-3-pyridyl]isoindolin-1-one] | 2.11 | –
